Laboratory results from patent publication US20110039787A1, “COMPOSITIONS, KITS AND METHODS FOR TREATING BENIGN PROSTATE HYPERPLASIA” (priority 2009, published 2011).
Square brackets hold non-standard residues; d marks the D form. Peptide text beside a SMILES is read from it. * marks the point of attachment. dPhe(4-NHCONH2) = NC(=O)Nc1ccc(C[C@@H](N)C(=O)O)cc1; Dihydroorotyl(S) = O=C1C[C@@H](C(=O)*)NC(=O)N1; dPhe(4-Cl) = N[C@H](Cc1ccc(Cl)cc1)C(=O)O; Phe(4-NH2) = Nc1ccc(C[C@H](N)C(=O)O)cc1; d2Nal = N[C@H](Cc1ccc2ccccc2c1)C(=O)O; Lys(iPr) = CC(C)NCCCC[C@H](N)C(=O)O; d3Pal = N[C@H](Cc1cccnc1)C(=O)O

What was measured:
testosterone = assay: Serum testosterone concentration-time profile (LC-MS/MS); type: in vivo, men; conditions: for Number of patients with testosterone below the castration level 0.5 ng/mL at one or more time-points / Percentage of patients with testosterone below the castration level 0.5 ng/mL at one or more time-points: up to Day 42; for Mean time to second return of testosterone to baseline interval (after the second administration): calculated, not measured values
men with BPH = conditions: in vivo
Description: The study population was men with BPH with: a prostate volume larger than 30 mL, a maximal uroflow of 12 mL/s (with some exceptions), an IPSS score of at least 13, serum prostatic specific antigen (PSA) below 10 ng/mL, and no evidence of prostate cancer. Altogether, 52 patients with BPH were randomly assigned to four parallel groups of 13 patients each.
The patients were randomly allocated to receive either: one injection of 64 mg degarelix on Day 0 (hereinafter termed “64 mg”); one injection of 32 mg degarelix on Day 0 and one on Day 14 (hereinafter termed “32+32 mg”); one injection of 32 mg degarelix on Day 0 (hereinafter termed “32 mg”); or one injection of 16 mg degarelix on Day 0 and one on Day 14 (hereinafter termed “16+16 mg”).
In order to evaluate the effects of degarelix on urinary morbidity, sexual function and overall quality of life (QoL) due to urinary condition, patient reported questionnaires (IPSS, IIEF, and IPSS-global QoL) were used. The questionnaires were answered by the patient at the clinic visits, in line with standard procedures.
The IIEF questionnaire evaluated sexual dysfunction associated with treatment. […] Question numbers one to ten are scored on a six-point scale from zero ('No sexual activity') to five (Almost always to always'). Question numbers 11-15 are scored on a five-point scale from one (Almost never or never') to five (Almost always to always'). […]

[1] = 16+16 mg, after the first administration
[2] = 16+16 mg, after the second administration
[3] = 32+32 mg, after the first administration
[4] = 32+32 mg, after the second administration
[5] = first dose of the 32+32 mg combined with the single dose 32 mg data

Change of IIEF scores (men with BPH): mild decrease
Structure (SMILES): CC(=O)N[C@H](Cc1ccc2ccccc2c1)C(=O)N[C@H](Cc1ccc(Cl)cc1)C(=O)N[C@H](Cc1cccnc1)C(=O)N[C@@H](CO)C(=O)N[C@@H](Cc1ccc(NC(=O)[C@@H]2CC(=O)NC(=O)N2)cc1)C(=O)N[C@H](Cc1ccc(NC(N)=O)cc1)C(=O)N[C@@H](CC(C)C)C(=O)N[C@@H](CCCCNC(C)C)C(=O)N1CCC[C@H]1C(=O)N[C@H](C)C(N)=O [Degarelix, D-Alaninamide, N-acetyl-3-(2-naphthalenyl)-D-alanyl-4-chloro-D-phenylalanyl-3-(3-pyridinyl)-D-alanyl-L-seryl-4-[[[(4S)-hexahydro-2,6-dioxo-4-pyrimidinyl]carbonyl]amino]-L-phenylalanyl-4-[(aminocarbonyl)amino]-D-phenylalanyl-L leucyl-N6-(1-methylethyl)-L-lysyl-L-prolyl] (Ac-[d2Nal][dPhe(4-Cl)][d3Pal]S[Phe(4-NH2)](Dihydroorotyl(S))[dPhe(4-NHCONH2)]L[Lys(iPr)]P[dA]-NH2)
Greatest change from baseline in mean testosterone (testosterone; 32 mg): -4.2 ng/mL | Mean minimal value of testosterone (Cnadir) (testosterone; 32 mg): 0.9 ng/mL | Mean time-point (tnadir) to Cnadir of testosterone (testosterone; 32 mg): 1.3 days | Lowest mean testosterone level (testosterone; 32 mg, Day 1, SD 0.5): 0.9 ng/mL | Mean testosterone level on Day 42 (testosterone; 32 mg, Day 42 (5.2 at baseline)): 5.3 ng/mL | Mean time for first return of testosterone to baseline interval after the first administration (testosterone; 32 mg, SD=5.2): 9.1 days | Mean area of testosterone concentrations below 0.5 ng/mL (testosterone; 32 mg, range 0.0-0.1): 0.0 ng·days/mL | Number of patients with testosterone below the castration level 0.5 ng/mL at one or more time-points (testosterone; 32 mg): 3 patients | Percentage of patients with testosterone below the castration level 0.5 ng/mL at one or more time-points (testosterone; 32 mg): 25% | Greatest change from baseline in mean testosterone (testosterone; 64 mg): -4.7 ng/mL | Mean minimal value of testosterone (Cnadir) (testosterone; 64 mg): 0.4 ng/mL | Mean time-point (tnadir) to Cnadir of testosterone (testosterone; 64 mg): 8.8 days | Lowest mean testosterone level (testosterone; 64 mg, Day 1, SD 0.2): 0.4 ng/mL | Mean testosterone level on Day 42 (testosterone; 64 mg, Day 42 (5.2 at baseline)): 3.0 ng/mL | Patients still below testosterone 0.5 ng/mL on Day 42 (testosterone; 64 mg, Day 42, of the 8 patients suppressed): Five | Mean area of testosterone concentrations below 0.5 ng/mL (testosterone; 64 mg, range 0.0-15.2): 4.4 ng·days/mL | Number of patients with testosterone below the castration level 0.5 ng/mL at one or more time-points (testosterone; 64 mg): 9 patients | Percentage of patients with testosterone below the castration level 0.5 ng/mL at one or more time-points (testosterone; 64 mg): 69% | Greatest change from baseline in mean testosterone (testosterone; 16+16 mg): -4.0 ng/mL | Lowest mean testosterone level (testosterone; 16+16 mg, Day 1, SD 0.5): 1.4 ng/mL | Mean testosterone level on Day 42 (testosterone; 16+16 mg, Day 42 (5.5 at baseline)): 4.5 ng/mL | Mean time for first return of testosterone to baseline interval after the first administration (testosterone; 16+16 mg, SD=2.8): 6.1 days | Mean time to second return of testosterone to baseline interval (after the second administration) (testosterone; 16+16 mg, SD=33.9): 19.5 days | Mean minimal value of testosterone (Cnadir) (testosterone; [1]): 1.4 ng/mL | Mean time-point (tnadir) to Cnadir of testosterone (testosterone; [1]): 1.1 days | Mean minimal value of testosterone (Cnadir) (testosterone; [2]): 2.0 ng/mL | Mean time-point (tnadir) to Cnadir of testosterone (testosterone; [2]): 4.0 days | Mean area of testosterone concentrations below 0.5 ng/mL (testosterone; 16+16 mg, range 0.0-0.0): 0.0 ng·days/mL | Number of patients with testosterone below the castration level 0.5 ng/mL at one or more time-points (testosterone; 16+16 mg): 2 patients | Percentage of patients with testosterone below the castration level 0.5 ng/mL at one or more time-points (testosterone; 16+16 mg): 15% | Greatest change from baseline in mean testosterone (testosterone; 32+32 mg): -4.1 ng/mL | Lowest mean testosterone level (testosterone; 32+32 mg, Day 17 (after second administration), SD 0.3): 0.4 ng/mL | Subjects that had not regained testosterone levels >0.5 ng/mL at Day 42 (testosterone; 32+32 mg, Day 42): Three | Mean testosterone level on Day 42 (testosterone; 32+32 mg, Day 42 (4.5 at baseline)): 2.7 ng/mL | Mean time for first return of testosterone to baseline interval after the first administration (testosterone; 32+32 mg, SD=2.6): 9.1 days | Mean time to second return of testosterone to baseline interval (after the second administration) (testosterone; 32+32 mg, SD=83.5): 64.2 days | Mean minimal value of testosterone (Cnadir) (testosterone; [3]): 0.6 ng/mL | Mean time-point (tnadir) to Cnadir of testosterone (testosterone; [3]): 3.2 days | Mean minimal value of testosterone (Cnadir) (testosterone; [4]): 0.4 ng/mL | Mean time-point (tnadir) to Cnadir of testosterone (testosterone; [4]): 4.3 days | Mean area of testosterone concentrations below 0.5 ng/mL (testosterone; 32+32 mg, range 0.0-15.3): 2.8 ng·days/mL | Number of patients with testosterone below the castration level 0.5 ng/mL at one or more time-points (testosterone; 32+32 mg): 9 patients | Percentage of patients with testosterone below the castration level 0.5 ng/mL at one or more time-points (testosterone; 32+32 mg): 75% | Number of patients castrated (testosterone below 0.5 ng/mL), for generally 2-4 days (testosterone; [5]): 8 patients | Percentage of patients castrated (testosterone below 0.5 ng/mL), for generally 2-4 days (testosterone; [5]): 33% | Larger area below and longer time to return to the testosterone baseline interval (testosterone; groups given a total of 64 mg compared to the total dose 32 mg): more than 2 fold
